Values quoted from earlier work, collected in patent US9333184B2, “Composition and method for affecting male and female hormone levels” (NOKOMIS RESEARCH, INC., priority 2011, dated 2016).

Conditions: for ingested amount metabolically degraded: intestine to blood stream

Compound | ingested amount metabolically available | ingested amount metabolically degraded [%]
NCCCCNCCCN [spermidine] | about 70% | 30
NCCCNCCCCNCCCN [spermine] | about 70% | 30
